Laboratory results from patent publication US8987201B2, “Black bear parathyroid hormone and methods of using black bear parathyroid hormone” (Michigan Technological University, priority 2009, dated 2015).

Tests used:
[1] = test system: human fetal osteoblasts (hFOB); test: Serum starvation cell death in human fetal osteoblasts (trypan blue); type: cell-based; conditions: 100 nM for 1 hour before serum starvation for 24 hours, preliminary studies, p<0.0001
Protocol: All PTH peptides used in the current study attenuated apoptotic signaling induced by serum starvation in vitro (FIG. 19). bbPTH 1-34 reduced apoptotic signaling in pre-osteoblastic cells more than human PTH (FIG. 19). Recently, we found similar results with preliminary studies in human fetal osteoblasts (hFOB). Serum starvation for 24 hours increased cell death in hFOB (confirmed via trypan blue staining), but pretreatment of hFOB cells with 100 nM PTH 1-34 or 1-84 for 1 hour before starvation reduced percent cell death (percentage change in cell death compared to vehicle pretreatment, hPTH 1-34: −18%, bbPTH 1-34: −25%, hPTH 1-84: −17%, bbPTH 1-84: −21%; p<0.0001; data not shown). […] However, although bbPTH 1-84 was less anti-apoptotic than bbPTH 1-34 and hPTH 1-34 in vitro (FIG. 19) it caused the greatest increases in cortical and trabecular bone mass in the in vivo studies (Table 1, Table 2).

[2] = test system: ovariectomized (OVX) Sprague-Dawley rats; test: In vivo rat OVX dose response study: bone μCT and bone strength
Protocol: Ninety female, 3-month old Sprague-Dawley rats were obtained. Eighty (80) of the rats were ovariectomized (OVX) and ten (10) underwent a sham OVX procedure (sham OVX) in which the ovaries were left in the animal. The OVX animals were randomly assigned into groups of ten for further experiments.
Following the actual or sham OVX procedure, all animals were untreated for 6 weeks to allow bone loss. After the 6 week period of bone loss, groups of animals were injected for a six- or eight-week period (daily for five days per week) with vehicle (saline) or 3, 10, or 30 μg/kg bear or human PTH1-34. […] The sham OVX group as well as one group of actual OVX rats were euthanized at six weeks while the remaining animals were euthanized at fourteen weeks following the OVX procedure. Samples were obtained from the euthanized animals for further analysis.
Three-dimensional images of bones were obtained using micro-computed tomography (μCT). The three-dimensional images were then used to quantify bone parameters, as explained below. The measurements were conducted on a 1.6 mm-thick region that begins at a position 2 mm from the growth plate (FIG. 8). Bone samples were obtained and analyzed from sham (FIG. 9A, “Sham OVX 6 weeks”) and actual (FIG. 9B, “OVX 6 weeks”) OVX rats that were euthanized at six weeks after the procedure, as well as a group of actual OVX rats that were euthanized at fourteen weeks after the procedure (FIG. 9C, “OVX 14 weeks”). The rats in the OVX 14 group were given injections of vehicle (saline) for 8 weeks following the 6 week bone loss period, in parallel with the PTH1-34 injections for eight weeks (FIGS. 9D, 9E, and 9F). The samples shown in FIGS. 9D, 9E, and 9F were obtained from rats that were injected for eight weeks following the 6 week bone loss period, with 3, 10, or 30 μg/kg black bear PTH1-34 (“bbPTH”), respectively.

Substance: human PTH 1-34 [hPTH 1-34]
- percentage change in cell death compared to vehicle pretreatment [1]: −18%
- average thickness of the trabecular struts (Tb.Th) compared to vehicle-treated controls ([2]; OVX rats): significantly (p<0.05) increased
- increasing tibial cortical bone volume (BV), human vs bear ([2]; OVX rats): better than bear PTH1-34
- trabecular bone mineralization (M.Dn) vs vehicle (saline) alone ([2]; OVX rats): significantly (p<0.05) greater trabecular bone mineralization
- bone mineral apparent density, hPTH vs bbPTH ([2]; OVX rats, 30 μg/kg): significantly higher (p<0.05)
- bone mineral apparent density (App.Dn) vs vehicle (saline) alone ([2]; OVX rats, 3, 10, or 30 μg/kg): significantly higher (p<0.05)
- bone volume as a fraction of total volume (BV/TV) vs vehicle (saline) alone ([2]; OVX rats, 3, 10, or 30 μg/kg): significantly (p<0.05) greater bone volume fraction than treatment with vehicle (saline) alone at all three levels tested
- bone volume fraction, human PTH vs bear PTH ([2]; OVX rats, highest dose of 30 μg/kg): significantly (p<0.05) greater
- tibial cortical porosity relative to vehicle (saline) alone ([2]; OVX rats, middle (10 μg/kg) and higher doses (30 μg/kg)): significantly (p<0.05) decreased
- femoral cortical bone strength relative to vehicle-treated controls ([2]; OVX rats, only higher doses (30 μg/kg)): significant (p<0.05) increases
